In ChEMBL document CHEMBL1153902, “Investigations of SCIO-469-like compounds for the inhibition of p38 MAP kinase” (Bioorg Med Chem Lett, 2009) one finds fold change (FC), inhibition and IC50 data, which are given here for 26 compounds.

The nature of one assay: Selectivity for p38alpha over p38beta.
For `CN(C)C(=O)C(=O)c1cn(C)c2cc(Cl)c(C(=O)N3CCC(Cc4ccc(F)cc4)CC3)cc12`, the fold change (FC) turned out to be 10.

A short description of another assay: Inhibition of p38 MAPK assessed as substrate phosphorylation at 10 uM by ELISA. (In an ELISA, binding on a coated surface is turned into a signal by an enzyme label.)
Consider `Cn1ccc2cc(NC(=O)N3CCN(Cc4ccc(F)cc4)CC3)ccc21`, for which the inhibition was found to be 28%. With `O=C(c1cc2c(Br)cccc2[nH]1)N1CCN(Cc2ccc(F)cc2)CC1`, the inhibition amounted to 34%. With `CC(=O)c1ccc2[nH]c(C(=O)N3CCN(Cc4ccc(F)cc4)CC3)cc2c1`, the inhibition stood at 45%.

With `CN(C)C(=O)C(=O)c1cn(C)c2ccc(NC(=O)N3CCN(Cc4ccc(F)cc4)CC3)cc12`, the inhibition came to 12%.

As to `Cn1c(C(=O)N2CCN(Cc3ccc(F)cc3)CC2)nc2ccccc21`, the inhibition stood at 32%. In the case of `O=C(c1ccco1)N1CCN(Cc2ccc(F)cc2)CC1`, the inhibition is 35%.

As to `O=C(c1ccco1)N1CCN(Cc2ccccc2)CC1`, the inhibition stood at 20%.

Consider `O=C(c1cn2ccccc2n1)N1CCN(Cc2ccc(F)cc2)CC1`, for which the inhibition came to 33%.

Take `CC(=O)c1c(C(=O)N2CCN(Cc3ccc(F)cc3)CC2)[nH]c2ccccc12`: the inhibition is 24%. Take `Fc1ccc(CN2CCN(Cc3cc4ccccc4[nH]3)CC2)cc1`: the inhibition stood at 25%.

As to `CC(C)(C)OC(=O)n1ccc2cc(CNC(=O)N3CCN(Cc4ccc(F)cc4)CC3)ccc21`, the inhibition came out at 8%. As for `O=C(c1nc2ccccc2[nH]1)N1CCN(Cc2ccc(F)cc2)CC1`, the inhibition is 24%.

The nature of another assay: Inhibition of p38 MAPK assessed as substrate phosphorylation by ELISA.
`O=C(c1cc2ccccc2[nH]1)N1CCN(Cc2ccccc2)CC1`: the IC50 is 5.77 µM.

With `O=C(c1cc2ccccc2o1)N1CCC(Cc2ccccc2)CC1`, the IC50 is 1.75 µM. Take `O=C(c1cc2ccccc2[nH]1)N1CCN(Cc2ccc(F)cc2)CC1`: the IC50 is 3.2 µM. Still for that read-out and setting: next, `Cn1c(C(=O)N2CCN(Cc3ccc(F)cc3)CC2)c(Br)c2ccccc21`: 2.24 µM; `CC(=O)c1ccc2[nH]c(C(=O)N3CCN(Cc4ccc(F)cc4)CC3)c(Cl)c2c1`: 6.51 µM; `CC(=O)c1cccc2cc(C(=O)N3CCN(Cc4ccc(F)cc4)CC3)[nH]c12`: 3.61 µM. Regarding `O=C(c1cc2ccccc2[nH]1)N1CCC(Cc2ccccc2)CC1`, the IC50 is 1.09 µM.

As to `O=C(c1[nH]c2ccccc2c1I)N1CCN(Cc2ccc(F)cc2)CC1`, the IC50 was 7.47 µM.

Consider `O=C(c1[nH]c2ccccc2c1Br)N1CCN(Cc2ccc(F)cc2)CC1`, for which the IC50 stood at 6.46 µM. As for `Cn1c(C(=O)N2CCN(Cc3ccc(F)cc3)CC2)cc2ccccc21`, the IC50 came out at 1.36 µM. On the same count and under the same terms, next, `O=C(c1cc2ccccc2o1)N1CCN(Cc2ccc(F)cc2)CC1`: 8.42 µM; `O=C(c1[nH]c2ccccc2c1Cl)N1CCN(Cc2ccc(F)cc2)CC1`: 7.57 µM. As for `CC(=O)c1cccc2c(Cl)c(C(=O)N3CCN(Cc4ccc(F)cc4)CC3)[nH]c12`, the IC50 came to 2.46 µM.

Usually inhibition stands for the change of the read-out against control, counted positive when it falls. What is called IC50 is the concentration at which inhibition is half-maximal.
